The numbers were not newly measured in article PMC4183665 (2014), which cites them from elsewhere.

“Also recorded” adds a separate entry of the source.

In data set [1] the test system is neprilysin (NEP 24.11).
In data set [2] the test system is dipeptidyl peptidase-4 (DPP-4).

Consider H-HAEGTFTSDVSSYLEGQAAKEFIAWLVKGRG-NH2, for which the cleaved bond entry in data set [1] was “cleaves after Ser18; also recorded: cleaves after Tyr19; also recorded: cleaves after Glu27; also recorded: cleaves after Phe28”; in data set [2] it was “cleaves after Ala8”.
